Assay results reported in ChEMBL document CHEMBL1136112, “Novel inhibitors of procollagen C-proteinase. Part 2: glutamic acid hydroxamates” (Bioorg Med Chem Lett, 2003).

Legend:
[1] = target: T1, Bone morphogenetic protein 1 (Homo sapiens, UniProt P13497); assay: Ability to inhibit procollagen C-terminal proteinase (PCP) tested in vitro
T1 sequence (P13497 whole entry): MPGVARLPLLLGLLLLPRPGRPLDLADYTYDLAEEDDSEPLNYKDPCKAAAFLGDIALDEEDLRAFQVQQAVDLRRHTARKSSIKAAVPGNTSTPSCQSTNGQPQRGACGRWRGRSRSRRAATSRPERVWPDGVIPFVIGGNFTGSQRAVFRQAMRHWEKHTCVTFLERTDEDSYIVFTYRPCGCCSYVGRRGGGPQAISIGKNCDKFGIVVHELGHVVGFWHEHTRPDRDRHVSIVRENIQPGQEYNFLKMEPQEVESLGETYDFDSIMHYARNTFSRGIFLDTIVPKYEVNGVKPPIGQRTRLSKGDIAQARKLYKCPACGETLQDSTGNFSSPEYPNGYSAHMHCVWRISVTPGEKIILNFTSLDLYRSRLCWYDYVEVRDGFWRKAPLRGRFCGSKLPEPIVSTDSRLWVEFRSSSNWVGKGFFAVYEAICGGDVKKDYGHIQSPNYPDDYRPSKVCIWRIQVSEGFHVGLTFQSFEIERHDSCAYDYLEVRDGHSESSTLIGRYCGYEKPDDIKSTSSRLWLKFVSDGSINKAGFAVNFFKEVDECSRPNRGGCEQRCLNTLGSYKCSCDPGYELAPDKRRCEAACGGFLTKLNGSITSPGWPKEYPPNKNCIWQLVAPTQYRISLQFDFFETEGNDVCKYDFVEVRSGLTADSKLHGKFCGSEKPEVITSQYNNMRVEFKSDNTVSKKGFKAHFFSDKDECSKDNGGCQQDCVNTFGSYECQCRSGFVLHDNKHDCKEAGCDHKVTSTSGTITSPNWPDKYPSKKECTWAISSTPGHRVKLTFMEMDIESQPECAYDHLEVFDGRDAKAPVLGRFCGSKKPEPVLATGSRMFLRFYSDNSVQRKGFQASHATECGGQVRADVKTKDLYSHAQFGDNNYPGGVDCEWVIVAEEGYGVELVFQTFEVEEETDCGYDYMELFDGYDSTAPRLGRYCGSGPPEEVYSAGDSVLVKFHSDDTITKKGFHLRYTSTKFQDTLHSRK

Interstitial collagenase = target: T2, Interstitial collagenase (Homo sapiens, UniProt P03956); assay: Inhibition of matrix metalloprotease-1
T2 sequence (P03956 whole entry): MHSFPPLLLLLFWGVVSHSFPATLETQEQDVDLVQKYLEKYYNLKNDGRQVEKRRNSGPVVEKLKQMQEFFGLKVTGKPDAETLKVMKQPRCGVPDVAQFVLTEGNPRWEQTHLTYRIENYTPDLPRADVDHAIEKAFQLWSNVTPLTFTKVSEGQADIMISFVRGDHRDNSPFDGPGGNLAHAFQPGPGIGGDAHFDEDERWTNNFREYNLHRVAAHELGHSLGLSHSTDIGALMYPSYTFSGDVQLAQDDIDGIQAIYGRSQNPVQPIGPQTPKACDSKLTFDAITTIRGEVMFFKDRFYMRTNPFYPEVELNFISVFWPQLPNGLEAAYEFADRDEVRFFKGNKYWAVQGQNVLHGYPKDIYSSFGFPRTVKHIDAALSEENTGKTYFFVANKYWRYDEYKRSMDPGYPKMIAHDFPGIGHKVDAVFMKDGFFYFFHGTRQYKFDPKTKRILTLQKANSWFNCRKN

Neutrophil collagenase = Neutrophil collagenase (Homo sapiens, UniProt P22894); assay: Inhibition of MMP-8
Neutrophil collagenase, sequence (P22894 whole entry): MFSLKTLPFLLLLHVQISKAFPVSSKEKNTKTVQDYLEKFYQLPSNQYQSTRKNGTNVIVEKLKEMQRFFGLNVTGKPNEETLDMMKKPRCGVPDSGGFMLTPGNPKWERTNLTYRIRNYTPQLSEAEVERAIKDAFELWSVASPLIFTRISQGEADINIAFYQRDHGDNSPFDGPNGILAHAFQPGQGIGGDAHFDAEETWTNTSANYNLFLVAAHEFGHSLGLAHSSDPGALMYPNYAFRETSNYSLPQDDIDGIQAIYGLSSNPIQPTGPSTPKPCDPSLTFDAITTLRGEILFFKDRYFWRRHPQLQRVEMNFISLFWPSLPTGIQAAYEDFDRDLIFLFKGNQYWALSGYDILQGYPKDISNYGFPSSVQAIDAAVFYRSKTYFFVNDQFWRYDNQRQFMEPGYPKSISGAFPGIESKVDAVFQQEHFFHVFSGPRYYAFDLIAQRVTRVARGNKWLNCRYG

Row | SMILES | Ki [1] [nM] | Ki (Interstitial collagenase) [nM] | Ki (Neutrophil collagenase) [nM]
1 | COc1ccc(S(=O)(=O)N(Cc2ccc3c(c2)OCO3)[C@H](CCC(=O)N2CCN(C(=O)Nc3cccc(OC)c3)CC2)C(=O)NO)cc1 | 105 | – | –
2 | CCNC(=O)CC[C@H](C(=O)NO)N(Cc1ccc2c(c1)OCO2)S(=O)(=O)c1ccc(OC)cc1 | 1200 | – | –
3 | COc1cc(C)c(S(=O)(=O)N(Cc2ccc3c(c2)OCO3)[C@H](CCC(=O)N2CCN(C(=O)OCc3ccccc3)CC2)C(=O)NO)c(C)c1C | 100 | > 40000 | 35000
4 | COC(=O)CC[C@H](C(=O)NO)N(Cc1ccc2c(c1)OCO2)S(=O)(=O)c1ccc(OC)cc1 | 300 | – | –
5 | COc1ccc(S(=O)(=O)N(Cc2ccc3c(c2)OCO3)[C@H](CCC(=O)N(CCC#N)Cc2cccnc2)C(=O)NO)cc1 | 480 | – | –
6 | COc1ccc(S(=O)(=O)N(Cc2ccc3c(c2)OCO3)[C@H](CCC(=O)N(C)C)C(=O)NO)cc1 | 330 | – | –
7 | COc1ccc(S(=O)(=O)N(Cc2ccc3c(c2)OCO3)[C@H](CCC(=O)NCC2CC2)C(=O)NO)cc1 | 660 | – | –
8 | COc1ccc(S(=O)(=O)N(Cc2ccc3c(c2)OCO3)[C@H](CCC(=O)NCc2ccncc2)C(=O)NO)cc1 | 1170 | – | –
9 | CCN(CC)C(=O)CC[C@H](C(=O)NO)N(Cc1ccc2c(c1)OCO2)S(=O)(=O)c1ccc(OC)cc1 | 1300 | – | –
10 | COc1ccc(S(=O)(=O)N(Cc2ccc3c(c2)OCO3)[C@H](CCC(=O)N(CCc2ccccc2)Cc2ccccc2)C(=O)NO)cc1 | 100 | – | –
11 | COC(=O)CC[C@H](C(=O)NO)N(Cc1ccc(C)c([N+](=O)[O-])c1)S(=O)(=O)c1ccc(OC)cc1 | > 40000 | – | –
12 | COc1ccc(S(=O)(=O)N(Cc2ccc3c(c2)OCO3)[C@H](CCC(=O)N(CCC#N)Cc2ccccc2)C(=O)NO)cc1 | 33 | – | –
13 | COc1cc(C)c(S(=O)(=O)N(Cc2ccc3c(c2)OCO3)[C@H](CCC(=O)N2CCN(c3ccccc3)CC2)C(=O)NO)c(C)c1C | 110 | > 40000 | 13000
14 | COc1ccc(S(=O)(=O)N(Cc2ccc3c(c2)OCO3)[C@H](CCC(=O)N2CCNCC2)C(=O)NO)cc1 | 1200 | – | –
15 | COc1ccc(S(=O)(=O)N(Cc2ccc3c(c2)OCO3)[C@H](CCC(=O)NCC(C)C)C(=O)NO)cc1 | 280 | – | –
16 | COC(=O)CC[C@H](C(=O)NO)N(Cc1ccc(C(F)(F)F)cc1)S(=O)(=O)c1ccc(OC)cc1 | > 40000 | – | –
17 | CCOC(=O)N1CCN(C(=O)CC[C@H](C(=O)NO)N(Cc2ccc3c(c2)OCO3)S(=O)(=O)c2c(C)cc(OC)c(C)c2C)CC1 | 43 | 32000 | 30000
18 | COc1cc(C)c(S(=O)(=O)N(Cc2ccc3c(c2)OCO3)[C@H](CCC(=O)N2CCN(C(C)=O)CC2)C(=O)NO)c(C)c1C | 63 | 37000 | 7000
19 | COc1ccc(NC(=O)N2CCN(C(=O)CC[C@H](C(=O)NO)N(Cc3ccc4c(c3)OCO4)S(=O)(=O)c3ccc(OC)cc3)CC2)cc1 | 90 | – | –
20 | COC(=O)C[C@H](C(=O)NO)N(Cc1ccc2c(c1)OCO2)S(=O)(=O)c1ccc(OC)cc1 | 950 | – | –
21 | COc1ccc(S(=O)(=O)N(Cc2ccc3c(c2)OCO3)[C@H](CCC(=O)N(Cc2ccccc2)Cc2ccccc2)C(=O)NO)cc1 | 400 | – | –
22 | COc1ccc(S(=O)(=O)N(Cc2ccc3c(c2)OCO3)[C@H](CCC(=O)NCCC(C)C)C(=O)NO)cc1 | 20 | – | –
23 | COc1ccc(S(=O)(=O)N(Cc2ccc3c(c2)OCO3)[C@H](CCC(=O)NCc2ccccc2)C(=O)NO)cc1 | 98 | – | –
24 | COc1ccc(S(=O)(=O)N(Cc2ccc3c(c2)OCO3)[C@H](CCC(=O)NCc2ccc(-c3ccccc3)cc2)C(=O)NO)cc1 | 11 | – | –
25 | COC(=O)CC[C@H](C(=O)NO)N(Cc1ccc(Br)cc1)S(=O)(=O)c1ccc(OC)cc1 | > 40000 | – | –
26 | COc1ccc(S(=O)(=O)N(Cc2ccc3c(c2)OCO3)[C@H](CCC(=O)NCc2cccnc2)C(=O)NO)cc1 | 160 | – | –
27 | COc1ccc(S(=O)(=O)N(Cc2ccc3c(c2)OCO3)[C@H](CCC(=O)NCC2CCCCC2)C(=O)NO)cc1 | 410 | – | –
28 | COC(=O)CC[C@H](C(=O)NO)N(Cc1ccc(OC)cc1)S(=O)(=O)c1ccc(OC)cc1 | 15000 | – | –

More lines, now with the values ahead:

Row | Ki [1] [nM] | Ki (Interstitial collagenase) [nM] | Ki (Neutrophil collagenase) [nM] | SMILES
29 | 340 | – | – | COc1ccc(S(=O)(=O)N(Cc2ccc3c(c2)OCO3)[C@H](CCC(=O)N2CCN(S(C)(=O)=O)CC2)C(=O)NO)cc1
30 | 1000 | – | – | COc1ccc(S(=O)(=O)N(Cc2ccc3c(c2)OCO3)[C@H](CCC(=O)N2CCN(C)CC2)C(=O)NO)cc1
31 | 620 | – | – | COc1ccc(S(=O)(=O)N(Cc2ccc3c(c2)OCO3)[C@H](CCC(=O)N2CCN(Cc3cccnc3)CC2)C(=O)NO)cc1
32 | 340 | – | – | COc1ccc(S(=O)(=O)N(Cc2ccc3c(c2)OCO3)[C@H](CCC(=O)N2CCN(c3ccccc3)CC2)C(=O)NO)cc1
33 | 40 | – | – | COc1ccc(S(=O)(=O)N(Cc2ccc3c(c2)OCO3)[C@H](CCC(=O)N2CCN(C(=O)c3ccco3)CC2)C(=O)NO)cc1
34 | > 1000 | – | – | COc1ccc(S(=O)(=O)N(Cc2ccc3c(c2)OCO3)[C@H](CCC(=O)N2CCN(Cc3ccccn3)CC2)C(=O)NO)cc1
35 | 200 | 120 | 9 | COc1ccc(S(=O)(=O)N(Cc2ccc3c(c2)OCO3)[C@H](CCC(=O)N2CCN(C(C)=O)CC2)C(=O)NO)cc1
36 | 64 | 90 | 6 | CCOC(=O)N1CCN(C(=O)CC[C@H](C(=O)NO)N(Cc2ccc3c(c2)OCO3)S(=O)(=O)c2ccc(OC)cc2)CC1
37 | 120 | – | – | COc1ccc(S(=O)(=O)N(Cc2ccc3c(c2)OCO3)[C@H](CCC(=O)N2CCC(Cc3ccccc3)CC2)C(=O)NO)cc1
38 | 35 | – | – | COc1ccc(S(=O)(=O)N(Cc2ccc3c(c2)OCO3)[C@H](CCC(=O)N2CCN(C(=O)c3ccccc3)CC2)C(=O)NO)cc1
39 | 530 | – | – | COc1ccc(S(=O)(=O)N(Cc2ccc3c(c2)OCO3)[C@H](CCC(=O)NCc2ccccn2)C(=O)NO)cc1
40 | 190 | – | – | COc1ccc(S(=O)(=O)N(Cc2ccc3c(c2)OCO3)[C@H](CCC(=O)N2CCOCC2)C(=O)NO)cc1
41 | > 1000 | – | – | COc1ccc(S(=O)(=O)N(Cc2ccc3c(c2)OCO3)[C@H](CCC(=O)N2CCN(Cc3ccncc3)CC2)C(=O)NO)cc1
42 | 210 | – | – | COc1ccc(S(=O)(=O)N(Cc2ccc3c(c2)OCO3)[C@H](CCC(=O)N2CCN(c3ccccn3)CC2)C(=O)NO)cc1
43 | 740 | – | – | COc1ccc(S(=O)(=O)N(Cc2ccc3c(c2)OCO3)[C@H](CCC(=O)N2CCN(Cc3ccccc3)CC2)C(=O)NO)cc1
44 | 260 | – | – | COc1ccc(S(=O)(=O)N(Cc2ccc3c(c2)OCO3)[C@H](CCC(=O)N2CCN(C(=O)OCc3ccccc3)CC2)C(=O)NO)cc1
